± gives the standard deviation of the averaged measurements.
Experiments:
MK0752 = compound: O=C(O)CC[C@H]1CC[C@@](c2cc(F)ccc2F)(S(=O)(=O)c2ccc(Cl)cc2)CC1 [MK0752]; assay: surviving fraction relative to DMSO-only wells; higher = less growth inhibition; conditions: exposure time: 5 days
In short: (§1)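 At 250–500 cells per well in 384-well plates, log-phase tumour cell lines were seeded and, 24 hours on, exposed continuously for five days to inhibitors at 0.5, 1, 5, 10, 50, 100, 500 and 1000 nM. Viability readout was CellTiter-Glo luminescence, reported as surviving fraction normalised to the median of DMSO-only wells.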

MK2206 = compound: NC1(c2ccc(-c3nc4ccn5c(=O)[nH]nc5c4cc3-c3ccccc3)cc2)CCC1 [MK2206]; assay: as above; conditions: exposure time: 5 days
In short: as §1

| Test System | surviving fraction (MK0752; 0.5 nM) | surviving fraction (MK0752; 1 nM) | surviving fraction (MK0752; 5 nM) | surviving fraction (MK0752; 10 nM) | surviving fraction (MK0752; 50 nM) | surviving fraction (MK0752; 100 nM) | surviving fraction (MK0752; 500 nM) | surviving fraction (MK0752; 1000 nM) | surviving fraction (MK2206; 0.5 nM) | surviving fraction (MK2206; 1 nM) | surviving fraction (MK2206; 5 nM) | surviving fraction (MK2206; 10 nM) | surviving fraction (MK2206; 50 nM) | surviving fraction (MK2206; 100 nM) | surviving fraction (MK2206; 500 nM) | surviving fraction (MK2206; 1000 nM) |
| --- | --- | --- | --- | --- | --- | --- | --- | --- | --- | --- | --- | --- | --- | --- | --- | --- |
| 22RV1 PROSTATE | 1.08 ± 0.069 | 1.1 ± 0.012 | 1.09 ± 0.021 | 1.04 ± 0.058 | 1.07 ± 0.092 | 1.11 ± 0.07 | 1.09 ± 0.044 | 1.08 ± 0.026 | 1.04 ± 0.045 | 0.987 ± 0.09 | 0.87 ± 0.09 | 0.921 ± 0.17 | 0.707 ± 0.12 | 0.762 ± 0.064 | 0.554 ± 0.05 | 0.582 ± 0.0085 |
| 93VU HEADNECK | 1.19 ± 0.15 | 1.25 ± 0.054 | 1.14 ± 0.041 | 1.23 ± 0.086 | 1.16 ± 0.016 | 1.23 ± 0.088 | 1.13 ± 0.051 | 1.18 ± 0.1 | 1.06 ± 0.076 | 1.07 ± 0.14 | 1.1 ± 0.093 | 1.15 ± 0.048 | 1.02 ± 0.045 | 0.999 ± 0.11 | 0.789 ± 0.085 | 0.649 ± 0.038 |
| 143B BONE | 1 ± 0.028 | 1.04 ± 0.03 | 1.022 ± 0.0064 | 1.05 ± 0.015 | 1.02 ± 0.044 | 1.05 ± 0.026 | 1.01 ± 0.02 | 1.06 ± 0.023 | 0.912 ± 0.012 | 0.969 ± 0.042 | 0.974 ± 0.082 | 1.1 ± 0.1 | 0.957 ± 0.024 | 0.959 ± 0.064 | 0.96 ± 0.034 | 0.939 ± 0.033 |
| A549 LUNG | 1.02 ± 0.053 | 1.03 ± 0.043 | 1.06 ± 0.059 | 1.02 ± 0.062 | 1.06 ± 0.054 | 1.09 ± 0.061 | 1.07 ± 0.063 | 1.1 ± 0.038 | 1.05 ± 0.023 | 1.1 ± 0.028 | 1.06 ± 0.037 | 1.081 ± 0.0074 | 1.06 ± 0.017 | 1.08 ± 0.026 | 1.06 ± 0.024 | 1.09 ± 0.042 |
| ASKA SYNOVIAL | 1.12 ± 0.023 | 1.16 ± 0.02 | 1.24 ± 0.038 | 1.22 ± 0.025 | 1.22 ± 0.11 | 1.23 ± 0.1 | 1.14 ± 0.087 | 1.14 ± 0.017 | 0.991 ± 0.089 | 1.06 ± 0.014 | 1 ± 0.04 | 1.02 ± 0.16 | 0.771 ± 0.038 | 0.724 ± 0.064 | 0.482 ± 0.018 | 0.481 ± 0.022 |
| BT20 BREAST | 1.16 ± 0.11 | 1.03 ± 0.11 | 1.09 ± 0.12 | 1.1 ± 0.17 | 1.03 ± 0.17 | 0.941 ± 0.19 | 0.914 ± 0.096 | 0.829 ± 0.19 | 1.14 ± 0.045 | 1.15 ± 0.07 | 1.05 ± 0.034 | 1.01 ± 0.078 | 1.11 ± 0.12 | 1.16 ± 0.052 | 1.39 ± 0.066 | 1.16 ± 0.05 |
| BT549 BREAST | 1.08 ± 0.14 | 1.09 ± 0.14 | 1.1 ± 0.18 | 1.11 ± 0.15 | 0.986 ± 0.1 | 1.04 ± 0.07 | 0.89 ± 0.095 | 1.03 ± 0.075 | 1.07 ± 0.092 | 1.06 ± 0.048 | 0.982 ± 0.15 | 1.06 ± 0.07 | 0.837 ± 0.05 | 0.833 ± 0.091 | 0.616 ± 0.078 | 0.46 ± 0.043 |
| CADOES1 SOFT TISSUE | 0.976 ± 0.09 | 1.02 ± 0.13 | 0.994 ± 0.073 | 0.953 ± 0.054 | 1.02 ± 0.14 | 0.849 ± 0.041 | 0.801 ± 0.086 | 0.931 ± 0.11 | 1.02 ± 0.12 | 0.925 ± 0.099 | 0.915 ± 0.097 | 0.926 ± 0.036 | 0.828 ± 0.088 | 0.815 ± 0.092 | 0.711 ± 0.077 | 0.591 ± 0.071 |
| CAL51 BREAST | 1.02 ± 0.015 | 0.995 ± 0.035 | 0.972 ± 0.027 | 0.967 ± 0.064 | 1.05 ± 0.013 | 0.992 ± 0.038 | 1.02 ± 0.036 | 1.02 ± 0.041 | 0.986 ± 0.05 | 1.09 ± 0.079 | 1.06 ± 0.031 | 1.02 ± 0.035 | 0.996 ± 0.043 | 0.993 ± 0.072 | 0.731 ± 0.027 | 0.56 ± 0.03 |
| CAL120 BREAST | 1.009 ± 0.0055 | 1 ± 0.047 | 1.025 ± 0.0088 | 1.01 ± 0.024 | 1.03 ± 0.018 | 1.07 ± 0.028 | 1.023 ± 0.0088 | 1 ± 0.054 | 0.976 ± 0.071 | 0.977 ± 0.062 | 0.991 ± 0.068 | 1.01 ± 0.06 | 0.966 ± 0.051 | 0.951 ± 0.031 | 0.859 ± 0.038 | 0.823 ± 0.043 |
| CASKI CERVIX | 0.896 ± 0.038 | 0.973 ± 0.061 | 1.01 ± 0.047 | 0.952 ± 0.03 | 1.08 ± 0.045 | 1.09 ± 0.061 | 0.987 ± 0.054 | 0.943 ± 0.057 | 0.905 ± 0.04 | 0.97 ± 0.055 | 0.951 ± 0.065 | 0.88 ± 0.011 | 0.736 ± 0.055 | 0.627 ± 0.039 | 0.44 ± 0.047 | 0.36 ± 0.022 |
| CHLA90 AUTONOMIC GANGLIA | 0.984 ± 0.034 | 1.05 ± 0.039 | 1.05 ± 0.04 | 1.009 ± 0.0045 | 1.01 ± 0.026 | 0.952 ± 0.044 | 1.1 ± 0.037 | 1.09 ± 0.018 | 1.04 ± 0.058 | 1.01 ± 0.037 | 0.944 ± 0.013 | 0.929 ± 0.025 | 0.945 ± 0.024 | 0.997 ± 0.1 | 0.9213 ± 0.0085 | 0.947 ± 0.053 |
| CME SYNOVIAL | 1.27 ± 0.23 | 1.31 ± 0.15 | 1.29 ± 0.09 | 1.39 ± 0.029 | 1.46 ± 0.22 | 1.47 ± 0.2 | 1.24 ± 0.11 | 1.34 ± 0.14 | 1.25 ± 0.18 | 1.22 ± 0.043 | 1.35 ± 0.13 | 1.35 ± 0.099 | 1.18 ± 0.085 | 1.23 ± 0.18 | 1.13 ± 0.099 | 0.901 ± 0.093 |
| COLO320DM LARGE INTESTINE | 1.09 ± 0.11 | 1.18 ± 0.065 | 1.16 ± 0.1 | 1.18 ± 0.049 | 1.14 ± 0.01 | 1.2 ± 0.087 | 1.17 ± 0.096 | 1.25 ± 0.27 | 0.985 ± 0.038 | 1.12 ± 0.11 | 1.11 ± 0.052 | 1.08 ± 0.066 | 1.03 ± 0.15 | 0.969 ± 0.059 | 0.707 ± 0.047 | 0.557 ± 0.056 |
| DU4475 BREAST | 1.04 ± 0.097 | 0.997 ± 0.16 | 0.927 ± 0.19 | 1.03 ± 0.21 | 0.967 ± 0.22 | 0.911 ± 0.26 | 0.976 ± 0.35 | 1.05 ± 0.38 | 1.07 ± 0.035 | 1.08 ± 0.094 | 0.989 ± 0.11 | 1 ± 0.015 | 0.828 ± 0.1 | 0.784 ± 0.019 | 0.469 ± 0.047 | 0.444 ± 0.015 |
| H23 LUNG | 1.064 ± 0.004 | 1.11 ± 0.053 | 1.1 ± 0.061 | 1.07 ± 0.063 | 1.104 ± 0.0052 | 1.17 ± 0.1 | 1.103 ± 0.0038 | 1.13 ± 0.058 | 0.95 ± 0.072 | 1.04 ± 0.015 | 1.017 ± 0.008 | 1.03 ± 0.053 | 0.911 ± 0.043 | 0.883 ± 0.046 | 0.776 ± 0.067 | 0.6663 ± 0.0061 |
| HCC38 BREAST | 1.22 ± 0.34 | 1.15 ± 0.21 | 1.27 ± 0.18 | 1.24 ± 0.044 | 1.21 ± 0.15 | 1.34 ± 0.28 | 1.12 ± 0.03 | 1.1 ± 0.16 | 1.36 ± 0.11 | 1.33 ± 0.26 | 1.36 ± 0.073 | 1.32 ± 0.12 | 1.32 ± 0.23 | 1.15 ± 0.083 | 1.11 ± 0.048 | 0.898 ± 0.12 |
| HCC70 BREAST | 1.1 ± 0.079 | 1.07 ± 0.05 | 1.132 ± 0.01 | 1.08 ± 0.029 | 1.11 ± 0.073 | 1.08 ± 0.13 | 1.03 ± 0.055 | 0.924 ± 0.074 | 1.03 ± 0.063 | 1.1 ± 0.08 | 1.13 ± 0.11 | 1.1 ± 0.12 | 0.93 ± 0.076 | 0.869 ± 0.094 | 0.39 ± 0.033 | 0.312 ± 0.014 |
| HCC78 LUNG | 0.916 ± 0.12 | 0.966 ± 0.16 | 1.08 ± 0.16 | 1.07 ± 0.12 | 1.17 ± 0.062 | 1.06 ± 0.15 | 0.839 ± 0.24 | 0.957 ± 0.17 | 0.785 ± 0.17 | 0.975 ± 0.05 | 1.12 ± 0.2 | 0.998 ± 0.21 | 0.848 ± 0.073 | 0.529 ± 0.13 | 0.33 ± 0.14 | 0.192 ± 0.076 |
| HCC202 BREAST | 1.28 ± 0.66 | 0.775 ± 0.51 | 0.94 ± 0.78 | 1.27 ± 0.18 | 1.23 ± 0.21 | 1.21 ± 0.1 | 1.31 ± 0.069 | 1.39 ± 0.36 | 1.07 ± 0.091 | 1.08 ± 0.12 | 1.2 ± 0.16 | 1.2 ± 0.074 | 0.699 ± 0.37 | 0.688 ± 0.035 | 0.238 ± 0.012 | 0.238 ± 0.0064 |

From the supplement of paper PMC6045584
